Active and inactive are the calls of the source. The calls are words filed in the database; no cut-off is given here.
What was measured:
[1] = system: Trypanosoma brucei brucei; assay: Antitrypanosomal activity against Trypanosoma brucei brucei; assay type: functional, organism-based
[2] = system: Trypanosoma brucei rhodesiense; assay: Antitrypanosomal activity against Trypanosoma brucei rhodesiense; assay type: functional, organism-based
[3] = system: Trypanosoma brucei; assay: Inhibition of Trypanosoma brucei AdoMetDC assessed as ratio of Kinact to Ki(apparent)
[4] = system: Trypanosoma brucei brucei; assay: Antitrypanosomal activity against Trypanosoma brucei brucei infected mouse assessed as reduction in parasitemia; assay type: functional, organism-based
[5] = Distribution coefficient, log D at pH 7.4 by shake flask method; assay type: physicochemical; settings: octanol/water
[6] = Cmax in blood of single dose ip administered mouse; assay type: ADME, organism-based; design: route intraperitoneal
[7] = AUC in blood of single dose ip administered mouse; assay type: ADME, organism-based
[8] = Half life in single dose ip administered mouse; assay type: ADME, organism-based; settings: in vivo
[9] = Cmax in brain of single dose ip administered mouse; assay type: ADME, organism-based; design: route intraperitoneal
[10] = AUC in brain of single dose ip administered mouse; assay type: ADME, organism-based

Row | IC50 [1] | IC50 [2] | Ratio [3] | Compound | also measured
1 | 7270 nM | 1700 nM | 0.02 | CN(C/C=C\CN)C[C@H]1O[C@@H](n2cnc3c(N)nc(Cl)nc32)[C@H](O)[C@@H]1O | 
2 | 210 nM | 11 nM | 1.5 | CN(C/C=C\CN)C[C@H]1O[C@@H](n2cnc3c(N)ncnc32)[C@H](O)[C@@H]1O | Activity [4]: Active; logD [5]: -1.8
3 | > 14000 nM |  |  | Cc1nc(N)c2ncn([C@@H]3O[C@H](CN(C)C/C=C\CN)[C@@H](O)[C@H]3O)c2n1 | 
4 | > 14000 nM | 1400 nM | 0.19 | CN(C/C=C\CN)C[C@H]1O[C@@H](n2cnc3c(N)ncnc32)[C@H](F)[C@@H]1O | 
5 | 11000 nM |  |  | CCCc1nc2c(N)ncnc2n1[C@@H]1O[C@H](CN(C)C/C=C\CN)[C@@H](O)[C@H]1O | 
6 | 27 nM | 1 nM | 7.78 | Cc1nc2c(N)ncnc2n1[C@@H]1O[C@H](CN(C)C/C=C\CN)[C@@H](O)[C@H]1O | Cmax [6]: 36900 ng/mL; AUC [7]: 17900 ng·h/mL; half-life [8]: 7.43 h; Activity [4]: Active; Cmax [9]: 660 ng/mL; AUC [10]: 1300 ng·h/mL
7 | 900 nM |  |  | CCc1nc2c(N)ncnc2n1[C@@H]1O[C@H](CN(C)C/C=C\CN)[C@@H](O)[C@H]1O | 
8 | > 14000 nM | 2600 nM | 0.19 | CN(C/C=C\CN)C[C@H]1O[C@@H](n2cnc3c(N)ncnc32)[C@@H](F)[C@@H]1O | 

From ChEMBL document CHEMBL1136916, “Discovery of new S-adenosylmethionine decarboxylase inhibitors for the treatment of Human African Trypanosomiasis (HAT)” (Bioorg Med Chem Lett, 2009)
